Values belong to the compound of their own block, whether it stands above or below them. Calls of active or inactive are those of the source.
Tests used:
[1] = target: Tyrosine-protein kinase JAK2 (Homo sapiens, UniProt O60674); assay type: functional;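 further: JAK2 tested as one member of a kinase panel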
[2] = target: ALK tyrosine kinase receptor (Homo sapiens, UniProt Q9UM73); assay type: functional;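 further: ALK tested as one member of a kinase panel screen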
[3] = target: Ribosomal protein S6 kinase beta-1 (Homo sapiens, UniProt P23443); assay type: functional;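 further: measured as one member of a kinome-wide profiling panel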
[4] = target: Serine/threonine-protein kinase 17A (Homo sapiens, UniProt Q9UEE5); assay type: functional
Serine/threonine-protein kinase 17A, sequence (Q9UEE5 whole entry): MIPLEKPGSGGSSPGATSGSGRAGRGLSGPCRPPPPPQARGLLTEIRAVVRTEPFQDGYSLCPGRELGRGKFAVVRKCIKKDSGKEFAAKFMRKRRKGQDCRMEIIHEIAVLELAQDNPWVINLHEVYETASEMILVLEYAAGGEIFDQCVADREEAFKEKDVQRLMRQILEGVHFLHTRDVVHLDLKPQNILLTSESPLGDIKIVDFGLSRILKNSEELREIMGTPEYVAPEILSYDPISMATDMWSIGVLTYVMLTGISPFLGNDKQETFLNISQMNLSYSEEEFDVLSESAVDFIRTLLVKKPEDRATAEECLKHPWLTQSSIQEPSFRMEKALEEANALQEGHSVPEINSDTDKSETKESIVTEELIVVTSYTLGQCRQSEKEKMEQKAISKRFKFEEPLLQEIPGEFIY

Activin receptor type-1 = Activin receptor type-1 (Homo sapiens, UniProt Q04771); test: Navigating the Kinome. Panel member name: ACVR1; assay type: functional
Activin receptor type-1, sequence (Q04771 whole entry): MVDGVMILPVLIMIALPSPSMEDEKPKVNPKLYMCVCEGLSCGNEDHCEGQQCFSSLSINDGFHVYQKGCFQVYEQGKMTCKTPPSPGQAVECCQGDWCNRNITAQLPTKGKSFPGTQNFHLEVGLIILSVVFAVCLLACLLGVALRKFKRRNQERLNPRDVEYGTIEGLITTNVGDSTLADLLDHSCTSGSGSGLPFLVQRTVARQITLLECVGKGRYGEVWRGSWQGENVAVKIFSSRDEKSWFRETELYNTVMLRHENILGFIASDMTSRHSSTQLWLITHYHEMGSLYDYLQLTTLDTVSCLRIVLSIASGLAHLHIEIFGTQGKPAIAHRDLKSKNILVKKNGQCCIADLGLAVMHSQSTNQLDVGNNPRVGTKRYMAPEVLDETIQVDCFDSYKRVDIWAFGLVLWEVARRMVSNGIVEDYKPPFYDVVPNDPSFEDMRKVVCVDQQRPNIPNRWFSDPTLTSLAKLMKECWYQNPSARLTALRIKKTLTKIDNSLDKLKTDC

SRSF protein kinase 1 = SRSF protein kinase 1 (Homo sapiens, UniProt Q96SB4); assay type: functional;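 further: measured as one member of a kinome-wide kinase profiling panel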
[5] = target: Casein kinase I isoform gamma-1 (Homo sapiens, UniProt Q9HCP0); assay type: functional;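 further: measured as the CSNK1G1 member of a kinome profiling panel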
[6] = target: Mitogen-activated protein kinase 9 (Homo sapiens, UniProt P45984); assay type: functional;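 further: value from a kinome panel profiling assay, MAPK9 panel entry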
Mitogen-activated protein kinase 9, sequence (P45984 whole entry): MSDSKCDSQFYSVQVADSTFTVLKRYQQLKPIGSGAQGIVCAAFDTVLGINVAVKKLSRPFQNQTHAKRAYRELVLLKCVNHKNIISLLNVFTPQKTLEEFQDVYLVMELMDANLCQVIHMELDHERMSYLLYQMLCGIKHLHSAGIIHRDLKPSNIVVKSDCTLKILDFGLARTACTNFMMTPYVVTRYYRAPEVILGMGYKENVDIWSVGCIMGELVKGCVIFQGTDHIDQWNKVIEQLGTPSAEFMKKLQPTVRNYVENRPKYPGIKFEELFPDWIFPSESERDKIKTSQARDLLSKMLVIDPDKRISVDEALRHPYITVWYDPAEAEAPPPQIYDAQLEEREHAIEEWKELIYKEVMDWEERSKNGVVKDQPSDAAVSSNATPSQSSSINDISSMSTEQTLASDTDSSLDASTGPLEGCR

[7] = target: Serine/threonine-protein kinase N2 (Homo sapiens, UniProt Q16513); assay type: functional
[8] = target: MAP/microtubule affinity-regulating kinase 3 (Homo sapiens, UniProt P27448); assay type: functional;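 further: MARK3 affinity measured as one member of a kinome panel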
MAP/microtubule affinity-regulating kinase 3, sequence (P27448 whole entry): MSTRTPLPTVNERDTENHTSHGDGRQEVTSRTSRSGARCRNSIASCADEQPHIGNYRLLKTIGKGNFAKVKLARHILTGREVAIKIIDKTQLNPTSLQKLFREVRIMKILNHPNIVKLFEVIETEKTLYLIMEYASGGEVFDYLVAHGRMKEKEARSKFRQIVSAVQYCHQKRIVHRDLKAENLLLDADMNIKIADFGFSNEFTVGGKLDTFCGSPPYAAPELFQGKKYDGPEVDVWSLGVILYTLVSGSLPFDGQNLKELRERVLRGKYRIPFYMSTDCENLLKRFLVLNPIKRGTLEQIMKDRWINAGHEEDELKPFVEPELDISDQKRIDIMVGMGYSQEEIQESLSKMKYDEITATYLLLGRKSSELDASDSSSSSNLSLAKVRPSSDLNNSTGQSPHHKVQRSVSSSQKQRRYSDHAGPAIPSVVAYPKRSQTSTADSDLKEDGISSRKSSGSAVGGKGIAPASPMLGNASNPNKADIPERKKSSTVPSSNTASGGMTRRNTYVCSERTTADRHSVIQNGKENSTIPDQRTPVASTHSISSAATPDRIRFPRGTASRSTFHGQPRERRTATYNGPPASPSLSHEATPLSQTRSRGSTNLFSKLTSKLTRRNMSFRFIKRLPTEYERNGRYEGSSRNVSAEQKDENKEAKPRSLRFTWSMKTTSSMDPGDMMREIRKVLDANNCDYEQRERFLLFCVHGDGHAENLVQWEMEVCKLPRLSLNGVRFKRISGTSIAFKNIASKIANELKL

[9] = target: Platelet-derived growth factor receptor beta (Homo sapiens, UniProt P09619); assay type: functional;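 further: value comes from a kinome panel, with PDGFRB tested as one panel member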
[10] = target: Receptor-type tyrosine-protein kinase FLT3 (Homo sapiens, UniProt P36888); assay type: functional;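 further: FLT3 was tested as one member of a kinome-wide kinase panel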
Receptor-type tyrosine-protein kinase FLT3, sequence (P36888 whole entry): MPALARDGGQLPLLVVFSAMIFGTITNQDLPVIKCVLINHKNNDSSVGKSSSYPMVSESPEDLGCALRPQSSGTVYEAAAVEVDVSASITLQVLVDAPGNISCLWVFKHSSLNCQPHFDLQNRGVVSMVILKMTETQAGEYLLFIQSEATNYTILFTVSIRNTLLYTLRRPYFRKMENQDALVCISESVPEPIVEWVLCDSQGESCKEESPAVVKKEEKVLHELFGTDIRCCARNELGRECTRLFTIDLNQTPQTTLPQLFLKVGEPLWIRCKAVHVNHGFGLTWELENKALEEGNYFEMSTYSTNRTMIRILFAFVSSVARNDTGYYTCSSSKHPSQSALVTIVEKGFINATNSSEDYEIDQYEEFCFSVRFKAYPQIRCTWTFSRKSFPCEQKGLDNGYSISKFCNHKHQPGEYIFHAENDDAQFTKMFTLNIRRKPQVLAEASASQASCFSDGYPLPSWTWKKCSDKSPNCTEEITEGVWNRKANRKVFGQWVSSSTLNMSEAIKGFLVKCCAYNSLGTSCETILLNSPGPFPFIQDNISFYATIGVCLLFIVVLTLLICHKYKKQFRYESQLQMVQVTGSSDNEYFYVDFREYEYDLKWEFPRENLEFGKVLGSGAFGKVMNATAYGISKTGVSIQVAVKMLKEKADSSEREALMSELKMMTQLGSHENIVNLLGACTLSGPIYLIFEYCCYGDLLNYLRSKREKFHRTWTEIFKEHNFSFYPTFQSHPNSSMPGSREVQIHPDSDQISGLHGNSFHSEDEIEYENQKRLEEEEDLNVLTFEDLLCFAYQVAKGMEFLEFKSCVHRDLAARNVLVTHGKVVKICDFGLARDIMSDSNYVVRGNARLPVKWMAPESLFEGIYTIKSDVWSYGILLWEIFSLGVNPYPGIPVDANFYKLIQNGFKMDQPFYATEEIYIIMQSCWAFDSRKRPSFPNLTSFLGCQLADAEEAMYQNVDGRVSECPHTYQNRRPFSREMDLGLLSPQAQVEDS

[11] = target: Receptor tyrosine-protein kinase erbB-2 (Homo sapiens, UniProt P04626); test: Navigating the Kinome. Panel member name: ERBB2; assay type: functional
[12] = target: Casein kinase I isoform delta (Homo sapiens, UniProt P48730); assay type: functional;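 further: measured as one member (CSNK1D) of a kinome panel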
Casein kinase I isoform delta, sequence (P48730 whole entry, canonical isoform): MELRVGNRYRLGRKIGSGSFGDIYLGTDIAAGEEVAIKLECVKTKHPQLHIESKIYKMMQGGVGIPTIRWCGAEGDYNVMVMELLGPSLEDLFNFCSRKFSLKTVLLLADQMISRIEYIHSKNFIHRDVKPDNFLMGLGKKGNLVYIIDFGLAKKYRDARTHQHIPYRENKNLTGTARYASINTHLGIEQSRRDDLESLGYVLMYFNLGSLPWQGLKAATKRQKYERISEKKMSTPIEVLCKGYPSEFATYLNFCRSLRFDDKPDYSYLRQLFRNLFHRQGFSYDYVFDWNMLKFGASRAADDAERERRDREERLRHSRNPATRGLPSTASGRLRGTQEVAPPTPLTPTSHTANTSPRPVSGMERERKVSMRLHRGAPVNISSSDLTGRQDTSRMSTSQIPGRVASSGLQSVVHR

Focal adhesion kinase 1 = Focal adhesion kinase 1 (Homo sapiens, UniProt Q05397); assay type: functional;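 further: measured as one member of a kinome panel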
Focal adhesion kinase 1, sequence (Q05397 whole entry): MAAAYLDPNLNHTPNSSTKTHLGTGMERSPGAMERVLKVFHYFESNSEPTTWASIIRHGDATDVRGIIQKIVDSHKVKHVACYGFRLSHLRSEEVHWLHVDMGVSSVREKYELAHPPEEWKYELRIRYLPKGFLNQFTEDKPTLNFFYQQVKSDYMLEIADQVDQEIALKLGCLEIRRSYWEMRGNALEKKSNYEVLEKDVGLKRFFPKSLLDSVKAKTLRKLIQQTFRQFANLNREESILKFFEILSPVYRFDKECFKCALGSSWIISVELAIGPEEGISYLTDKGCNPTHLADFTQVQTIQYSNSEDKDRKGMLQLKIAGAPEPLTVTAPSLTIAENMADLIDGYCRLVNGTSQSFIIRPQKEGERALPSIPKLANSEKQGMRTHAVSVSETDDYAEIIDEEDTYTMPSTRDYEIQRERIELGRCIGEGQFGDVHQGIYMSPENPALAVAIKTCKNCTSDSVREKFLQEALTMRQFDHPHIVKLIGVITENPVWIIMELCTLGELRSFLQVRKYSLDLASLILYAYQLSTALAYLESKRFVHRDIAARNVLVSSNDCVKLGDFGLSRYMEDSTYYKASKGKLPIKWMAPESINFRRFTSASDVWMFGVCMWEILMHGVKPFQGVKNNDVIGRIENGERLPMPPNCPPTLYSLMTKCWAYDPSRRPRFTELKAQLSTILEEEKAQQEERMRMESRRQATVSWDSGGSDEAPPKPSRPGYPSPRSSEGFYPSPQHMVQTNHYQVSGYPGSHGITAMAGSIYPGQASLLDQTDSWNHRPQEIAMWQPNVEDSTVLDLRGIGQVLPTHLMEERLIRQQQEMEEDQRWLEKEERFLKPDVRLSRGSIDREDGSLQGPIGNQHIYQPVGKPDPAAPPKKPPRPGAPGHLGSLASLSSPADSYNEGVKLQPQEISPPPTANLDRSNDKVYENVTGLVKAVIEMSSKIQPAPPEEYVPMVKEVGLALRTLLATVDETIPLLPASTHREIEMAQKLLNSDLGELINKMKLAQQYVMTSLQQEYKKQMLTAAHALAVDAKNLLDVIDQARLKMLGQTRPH

[13] = target: Leucine-rich repeat serine/threonine-protein kinase 2 (Homo sapiens, UniProt Q5S007); assay type: functional;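 further: value from a broad kinome-wide panel profiling study in which LRRK2 was one of the kinases tested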
[14] = target: Rho-associated protein kinase 1 (Homo sapiens, UniProt Q13464); assay type: functional;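 further: measured within a broad kinome-wide panel profiling many kinases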
[15] = target: Tyrosine-protein kinase Fyn (Homo sapiens, UniProt P06241); assay type: functional
[16] = target: Receptor tyrosine-protein kinase erbB-4 (Homo sapiens, UniProt Q15303); assay type: functional;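 further: ERBB4 member of a kinome-wide kinase profiling panel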
[17] = target: Serine/threonine-protein kinase MRCK alpha (Homo sapiens, UniProt Q5VT25); assay type: functional
[18] = target: Macrophage colony-stimulating factor 1 receptor (Homo sapiens, UniProt P07333); assay type: functional;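 further: value comes from the Navigating the Kinome screening panel, CSF1R member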
[19] = target: Leukocyte tyrosine kinase receptor (Homo sapiens, UniProt P29376); test: Navigating the Kinome. Panel member name: LTK; assay type: functional
[20] = target: T1, Histone-lysine N-methyltransferase NSD2 (Homo sapiens, UniProt O96028); assay type: biochemical
T1 sequence (O96028 whole entry): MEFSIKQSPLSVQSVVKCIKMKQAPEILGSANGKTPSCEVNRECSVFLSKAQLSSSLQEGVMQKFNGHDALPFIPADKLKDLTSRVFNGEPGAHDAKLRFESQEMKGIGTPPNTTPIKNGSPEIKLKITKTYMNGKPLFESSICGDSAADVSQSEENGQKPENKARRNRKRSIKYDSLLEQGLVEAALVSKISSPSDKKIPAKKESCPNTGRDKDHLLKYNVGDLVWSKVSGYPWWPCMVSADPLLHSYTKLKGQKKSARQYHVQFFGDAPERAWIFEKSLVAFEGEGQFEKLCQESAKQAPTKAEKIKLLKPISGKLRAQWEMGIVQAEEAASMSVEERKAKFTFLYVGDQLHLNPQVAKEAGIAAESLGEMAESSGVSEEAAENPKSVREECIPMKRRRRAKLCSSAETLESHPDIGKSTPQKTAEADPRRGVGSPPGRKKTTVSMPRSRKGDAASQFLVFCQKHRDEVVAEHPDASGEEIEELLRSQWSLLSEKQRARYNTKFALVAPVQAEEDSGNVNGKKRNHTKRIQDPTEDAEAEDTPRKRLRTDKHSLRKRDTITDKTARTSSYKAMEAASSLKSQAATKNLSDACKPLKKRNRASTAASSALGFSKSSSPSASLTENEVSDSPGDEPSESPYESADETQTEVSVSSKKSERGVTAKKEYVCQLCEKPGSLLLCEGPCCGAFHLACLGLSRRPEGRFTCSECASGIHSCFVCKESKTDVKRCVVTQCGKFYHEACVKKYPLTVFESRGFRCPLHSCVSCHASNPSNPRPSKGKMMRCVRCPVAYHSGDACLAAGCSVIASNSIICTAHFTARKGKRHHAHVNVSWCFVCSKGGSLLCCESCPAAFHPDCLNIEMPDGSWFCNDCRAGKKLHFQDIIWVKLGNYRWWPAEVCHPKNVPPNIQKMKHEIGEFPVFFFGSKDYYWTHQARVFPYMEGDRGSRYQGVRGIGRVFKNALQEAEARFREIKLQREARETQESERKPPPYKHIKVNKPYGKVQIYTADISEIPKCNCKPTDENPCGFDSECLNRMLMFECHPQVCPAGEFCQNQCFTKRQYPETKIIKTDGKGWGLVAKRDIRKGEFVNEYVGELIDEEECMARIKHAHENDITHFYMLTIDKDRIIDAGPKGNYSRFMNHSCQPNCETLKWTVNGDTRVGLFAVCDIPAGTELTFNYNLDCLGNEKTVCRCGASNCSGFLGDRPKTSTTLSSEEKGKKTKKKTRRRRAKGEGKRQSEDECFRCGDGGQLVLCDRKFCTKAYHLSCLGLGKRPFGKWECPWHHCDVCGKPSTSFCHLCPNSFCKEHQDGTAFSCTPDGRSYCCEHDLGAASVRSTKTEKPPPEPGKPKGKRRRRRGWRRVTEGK

[21] = target: Sphingosine 1-phosphate receptor 2 (Homo sapiens, UniProt O95136); test: Dose Response Cell Based Assay for Antagonists of the S1P2 Receptor. [Related pubchem assays: 856, 736 ]; assay type: functional
Sphingosine 1-phosphate receptor 2, sequence (O95136 whole entry): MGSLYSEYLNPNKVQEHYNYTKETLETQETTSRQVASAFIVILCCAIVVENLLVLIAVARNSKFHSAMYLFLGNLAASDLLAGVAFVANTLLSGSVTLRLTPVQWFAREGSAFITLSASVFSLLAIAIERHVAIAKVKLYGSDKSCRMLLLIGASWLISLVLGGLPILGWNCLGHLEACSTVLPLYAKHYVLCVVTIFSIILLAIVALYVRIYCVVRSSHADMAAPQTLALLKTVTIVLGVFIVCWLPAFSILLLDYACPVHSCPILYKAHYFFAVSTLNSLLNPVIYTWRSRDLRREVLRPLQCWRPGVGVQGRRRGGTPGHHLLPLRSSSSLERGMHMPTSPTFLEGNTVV

[22] = alpha-synuclein stem-loop luciferase translation blockers – H4 neuroglioma cells, luminescence, confirmation (AID 1988); assay type: functional, cell-based
Streptococcus = test: GAS UMAA2166 growth inhibition – luminescence, BacTiterGlo, counter-screen for streptokinase expression inhibitor project, dose response (AID 1915); assay type: functional, organism-based;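 further: potency for reduction of bacterial viability or growth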
BJ = test: growth inhibition of engineered Ras-driven BJ cells – cell-based, alamar blue fluorescence, cherrypicked samples, dose response (AID 2631); assay type: functional; conditions: Homo sapiens;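 further: confirmatory dose-response assay in RAS-dependent BJ fibroblasts engineered with TERT, LT and ST, with cytotoxicity read by fluorescence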
[23] = loss of viability in HepG2 cells – cell-based, CellTiter-Glo, cherry-picked, cytotoxicity control for Shn3 inhibitor project, dose response (AID 624134); assay type: functional

- Ki [1]: > 1.58 µM (inactive)
- Ki [2]: 6.31 µM (active)
- Ki [3]: 0.126 µM (active)
- Ki [4]: > 3.98 µM (inactive)
- Ki (Activin receptor type-1): 0.631 µM (active)
- Ki (SRSF protein kinase 1): 7.94 µM (active)
- Ki [5]: > 6.31 µM (inactive)
- Ki [6]: > 3.98 µM (inactive)
- Ki [7]: > 7.94 µM (inactive)
- Ki [8]: > 6.31 µM (inactive)
- Ki [9]: 7.94 µM (active)
- Ki [10]: 10 µM (active)
- Ki [11]: > 1.58 µM (inactive)
- Ki [12]: 6.31 µM (active)
- Ki (Focal adhesion kinase 1): > 39.8 µM (inactive)
- Ki [13]: 3.16 µM (active)
- Ki [14]: 1 µM (active)
- Ki [15]: > 7.94 µM (inactive)
- Ki [16]: > 3.98 µM (inactive)
- Ki [17]: > 10 µM (inactive)
- Ki [18]: > 5.01 µM (inactive)
- Ki [19]: 1.26 µM (active)
SMILES: Nc1noc2cccc(-c3cccc(O)c3)c12

SMILES: Cc1ccc2[nH]c(/C(C#N)=C/c3ccc(O)c(O)c3)nc2c1
- AC50 [20]: 4.37 µM (active)

SMILES: COC(=O)C1CN(C#N)N(c2ccc(Cl)cc2)C12c1ccccc1-c1ccccc12 (stereo not drawn)
- IC50 [21]: 2.79 µM (active)
- EC50 [22]: 7.38 µM (active)
- EC50 (Streptococcus): 20.7 µM (active)
- EC50 (BJ): 0.563 µM (inconclusive)
- AC50 [23]: 8.85 µM (active)
